Measurements: publication PMC8746709, “Benzothiazolium Derivative-Capped Silica Nanocomposites for β-Amyloid Imaging In Vivo” (Analytical Chemistry, 2021)

Biological target: T1, β-amyloid(1–42) (Aβ1–42) aggregates (Homo sapiens, UniProt P05067)
T1 construct: gene APP; Aβ1–42, aggregates (filamentous)
Experiment: fluorescence saturation binding assay with Aβ[…] aggregates

T1 sequence (P05067 672-713): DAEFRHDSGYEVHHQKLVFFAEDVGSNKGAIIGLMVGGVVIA

CN(C)c1ccc(/C=C/C=C/c2sc3ccccc3[n+]2C)cc1 [SZI-2, 2-((1E,3E)-4-(4-(Dimethylamino)phenyl)buta-1,3-dien-1-yl)-3-methylbenzo[d]thiazol-3-ium Iodide]
Kd: 601 ± 94.8 nM

CN(C)c1ccc(/C=C/c2sc3ccccc3[n+]2C)cc1 [SZI-1, (E)-2-(4-(Dimethylamino)styryl)-3-methylbenzo[d]thiazol-3-ium Iodide]
Kd: 508 ± 94.8 nM
